Assay: Solubility in DMSO
Type: physicochemical

## C60-bis(N,N-dimethyl-2-hexylpyyrolidinium iodido) [derivative 4]
  dissolved in DMSO at a concentration: ≥ 5 mM

From patent publication EP1611889A1, “ANTIBACTERIAL AGENT AND ANTICANCER AGENT” (MITSUBISHI CORPORATION, priority 2003, dated 2004)
